Test results as given in patent publication US12421254B2, “KRAS modulators and uses thereof” (Quanta Therapeutics, Inc., priority 2023, dated 2025).
Like-named read-outs stand apart in the source and are kept apart here.

Tests used:
[1] = biological target: GST-tagged KRAS-G12D (2-169) (Homo sapiens, UniProt P01116, G12D); test: Nucleotide exchange assay (NEA), SOS-mediated, HTRF, KRAS G12D; type: biochemical; details: IC50 extracted at 30 min, 20 nM SOScat
Summary of the method: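 Compound preincubated 1 h at RT with 0.25 nM GST-KRAS-G12D (2-169) and anti-GST Tb donor, then 20 nM SOS1cat (564-1049) and 150 nM GTP-DY-647P1 added; pH 7.3 HEPES buffer with MgCl2 and DTT. HTRF monitored at RT; % inhibition versus DMSO and no-SOS blank, 4-parameter IC50 taken at 30 min.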

[2] = biological target: GST-tagged KRAS-G12V (2-169) (Homo sapiens, UniProt P01116, G12V); test: Nucleotide exchange assay (NEA), SOS-mediated, HTRF, KRAS G12V; type: biochemical; details: Table 4; IC50 extracted at 90 min; 80 nM SOS
Summary of the method: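 GST-KRAS-G12V (2-169), 0.25 nM, pre-incubated 1 h at RT with compound, then SOS1cat (564-1049) 80 nM and GTP-DY-647P1 150 nM added in HEPES pH 7.3 buffer with MgCl2 and DTT. HTRF via anti-GST Tb cryptate read over 90 min; IC50 from 4-parameter fit at 90 min, blanked to no-SOS reactions.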

[3] = biological target: T1, KRAS G12V/RAF1 (Homo sapiens, UniProt P01116, G12V); test: Protein-protein interaction (PPI) HTRF assay KRAS G12V/RAF1; type: binding; details: Table 3
T1 construct: KRAS (1-169) proteins were expressed in BL21 (DE3)-CodonPlus E. coli; His6-MBP (N, cleaved yes)
Method: (§1) When RAS proteins are in the active GTP-bound conformation, they bind the effector protein RAF1 at the N-terminus Ras-binding domain (RBD, residues 52-131) (Tran, et al., 2021). Homogenous time resolved fluorescence (HTRF) was used to monitor the interaction between wt or mutant KRAS and RAF1 or wt NRAS and RAF1. Compounds were assayed in the presence of KRAS G12D/V and RAF1 versus wt KRAS to assess activity against mutant and w.t. KRAS. Similarly, compounds were then assayed in the presence of w.t. NRAS and RAF1 to assess RAS isoform selectivity. In all assay formats, His-tagged RAF1 protein was incubated with the HTRF donor, anti-6His Tb Cryptate gold (Cisbio 61DB10RDF), and biotinylated RAS proteins were incubated with the HTRF acceptor, streptavidin-d2 (CisBio 610SADLA). The intensity of the fluorescence signal emitted is proportional to binding between the two proteins. The donor solution was prepared by mixing 16 nM His-tagged RAF1 in protein dilution buffer with 1:100 anti-6His Tb cryptate in PPI-Terbium detection buffer. 16 nM biotinylated RAS protein was diluted into protein dilution buffer (50 mM Tris-HCl pH 7.5, 150 mM NaCl, 0.1 mM MgCl2, 1 mM TCEP, 0.005% Tween20) and mixed with 1:2000 Streptavidin-d2 diluted in PPI-Terbium detection buffer (CisBio 61DB10RDF). 50× compound in DMSO was mixed with 16 nM KRAS-acceptor solution and incubated for 30 minutes at room temperature. After compound pre-incubation with KRAS, the RAF1 donor solution was added to the KRAS-acceptor solution and incubated for 1 hour at room temperature. The fluorescence signal emitted was monitored at 665 nm and 615 nm using an Envision multimode plate reader. The HTRF ratio (665/615) was calculated and normalized to 0% inhibition in the absence of compound and 100% inhibition in the presence of untagged RAF1 protein. PPI KRAS G12D/RAF1, KRAS G12V/RAF1, w.t. KRAS/RAF1 and NRAS/RAF1 IC50 (uM) values of selected compounds are depicted in Table 3 and Table 4 with compounds having a value <0.1 uM as ++++; ≥0.1 uM to 1 uM as +++; ≥1 uM to 10 uM as ++; ≥10 uM to 100 uM as +; and ≥100 uM as NA.

[4] = biological target: T2, w.t. KRAS/RAF1 (Homo sapiens, UniProt P01116); test: Protein-protein interaction (PPI) HTRF assay w.t. KRAS/RAF1; type: binding; details: Table 3; wt KRAS/RAF1
T2 construct: KRAS (1-169) proteins were expressed in BL21 (DE3)-CodonPlus E. coli; His6-MBP (N, cleaved yes)
Method: as §1

[5] = Table 2, read-out: NEA-G12D (uM) IC50
[6] = Table 4, read-out: NEA G12D IC50

Sequence of GST-tagged KRAS-G12D (2-169) (P01116 2-169 isoform P01116-2 G12D): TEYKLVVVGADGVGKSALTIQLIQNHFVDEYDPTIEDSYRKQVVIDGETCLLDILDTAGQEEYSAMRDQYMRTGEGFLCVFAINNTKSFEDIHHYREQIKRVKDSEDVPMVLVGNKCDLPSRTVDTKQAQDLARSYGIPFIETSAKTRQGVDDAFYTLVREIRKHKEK
T1 sequence (P01116 with tags, fused parts or gaps isoform P01116-2 G12V): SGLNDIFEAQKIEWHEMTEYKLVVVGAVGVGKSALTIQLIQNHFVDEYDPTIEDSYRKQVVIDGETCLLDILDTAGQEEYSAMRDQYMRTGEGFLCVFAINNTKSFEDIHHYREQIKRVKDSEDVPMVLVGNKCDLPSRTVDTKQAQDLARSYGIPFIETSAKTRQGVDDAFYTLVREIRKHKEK
Sequence of GST-tagged KRAS-G12V (2-169) (P01116 2-169 isoform P01116-2 G12V): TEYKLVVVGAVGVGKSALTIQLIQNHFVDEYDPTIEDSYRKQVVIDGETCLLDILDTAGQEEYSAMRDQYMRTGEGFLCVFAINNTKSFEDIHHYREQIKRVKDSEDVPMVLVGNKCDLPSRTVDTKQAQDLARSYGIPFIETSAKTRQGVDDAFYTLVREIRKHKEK
T2 sequence (P01116 with tags, fused parts or gaps isoform P01116-2): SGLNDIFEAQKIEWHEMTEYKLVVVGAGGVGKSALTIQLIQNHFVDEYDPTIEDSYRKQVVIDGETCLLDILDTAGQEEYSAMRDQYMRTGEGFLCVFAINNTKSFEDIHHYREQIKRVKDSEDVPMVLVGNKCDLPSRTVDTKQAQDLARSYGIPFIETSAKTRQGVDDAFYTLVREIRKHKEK

SMILES | IC50 [1, 5] | IC50 [1, 6] | IC50 [2] | IC50 [3] | IC50 [4]
N#Cc1c(N)sc2c1C1(CC2)CN(c2nc(OC[C@@]34CCCN3C[C@H](F)C4)nc(N3CCCC(C#N)C3)n2)C1 (stereo partly drawn) [Compound 13, 2-amino-1′-[4-(3-cyano-1-piperidyl)-6-[[(2R,8S)-2-fluoro-1,2,3,5,6,7-hexahydropyrrolizin-8-yl]methoxy]-1,3,5-triazin-2-yl]spiro[5,6-dihydrocyclopenta[b]thiophene-4,3′-azetidine]-3-carbonitrile] | 0.01 to 0.1 µM | 0.01 to 0.1 µM | 10 to 100 nM | 1 to 10 µM | 1 to 10 µM
C[C@@]1(O)CCCN(c2nc(OC[C@@]34CCCN3C[C@H](F)C4)nc(N3CC4(CCc5sc(N)c(C#N)c54)C3)n2)C1 [Compound 10, 2-amino-1′-[4-[[(2R,8S)-2-fluoro-1,2,3,5,6,7-hexahydropyrrolizin-8-yl]methoxy]-6-[(3R)-3-hydroxy-3-methyl-1-piperidyl]-1,3,5-triazin-2-yl]spiro[5,6-dihydrocyclopenta[b]thiophene-4,3′-azetidine]-3-carbonitrile] | < 0.01 µM | < 0.01 µM | < 10 nM | 1 to 10 µM | 1 to 10 µM
N#Cc1c(N)sc2c1C1(CC2)CN(c2nc(OCC3(CN4CCOCC4)CC3)nc(N3CCCC4(C3)NC(=O)NC4=O)n2)C1 (stereo not drawn) [Compound 7, 2-amino-1′-[4-(2,4-dioxo-1,3,9-triazaspiro[4.5]decan-9-yl)-6-[[1-(morpholinomethyl)cyclopropyl]methoxy]-1,3,5-triazin-2-yl]spiro[5,6-dihydrocyclopenta[b]thiophene-4,3′-azetidine]-3-carbonitrile] | < 0.01 µM | < 0.01 µM | < 10 nM | 0.1 to 1 µM | 0.1 to 1 µM
N#Cc1c(N)sc2c1C1(CCC2)CN(c2nc(OCC3(CN4CCOCC4)CC3)nc(N3C[C@H]4CC[C@@H](C3)N4)n2)C1 [Compound 3, 2-amino-1′-[4-[(1R,5S)-3,8-diazabicyclo[3.2.1]octan-3-yl]-6-[[1-(morpholinomethyl)cyclopropyl]methoxy]-1,3,5-triazin-2-yl]spiro[6,7-dihydro-5H-benzothiophene-4,3′-azetidine]-3-carbonitrile] | < 0.01 µM | < 0.01 µM | 100 to 1000 nM | 10 to 100 µM | 1 to 10 µM
N#Cc1c(N)sc2c1C1(CC2)CN(c2nc(OCC34CCCN3CC(F)C4)nc(N3CC4CCC(C3)N4)n2)C1 [Compound 1, 2-amino-1′-[4-(3,8-diazabicyclo[3.2.1]octan-3-yl)-6-[[(2R,8S)-2-fluoro-1,2,3,5,6,7-hexahydropyrrolizin-8-yl]methoxy]-1,3,5-triazin-2-yl]spiro[5,6-dihydrocyclopenta[b]thiophene-4,3′-azetidine]-3-carbonitrile] | < 0.01 µM | < 0.01 µM | 10 to 100 nM | 0.1 to 1 µM | 1 to 10 µM
N#Cc1c(N)sc2c1C1(CC2)CN(c2nc(OCC3(CN4CCOCC4)CC3)nc(N3C[C@H]4CC[C@@H](C3)N4)n2)C1 [Compound 2, 2-amino-1′-[4-[[1-(morpholinomethyl)cyclopropyl]methoxy]-6-[(1R,5S)-3,8-diazabicyclo[3.2.1]octan-3-yl]-1,3,5-triazin-2-yl]spiro[5,6-dihydrocyclopenta[b]thiophene-4,3′-azetidine]-3-carbonitrile] | < 0.01 µM | < 0.01 µM | 100 to 1000 nM | 1 to 10 µM | 1 to 10 µM
